Results: patent publication US4396613A, “23-Ester derivatives of DMT and method of using same” (Eli Lilly and Company, priority 1981, dated 1983)
Values after ≈ are worked out from the molar mass of the structure shown.

How the values were obtained:
Format in all cases: cell-based
[1] = system: Staphylococcus aureus X400; assay: standard agar-dilution assay (MIC); conditions: Staphylococcus aureus X400, methicillin-resistant strain, unit assumed
Method: (§1) The MIC's in Table II were determined by standard agar-dilution assays. The MIC's in Table III were obtained using a conventional broth-dilution microtiter test.
^c Methicillinresistant-strain

[2] = system: Streptococcus pneumoniae Park I; conditions: agar dilution, unit assumed
Method: as §1

[3] = system: Streptococcus sp. 80; assay: conventional broth-dilution microtiter test (MIC); conditions: unit assumed
Method: as §1

[4] = system: Pasteurella multocida 17E; assay: conventional broth-dilution microtiter test (MIC); conditions: bovine isolate, unit assumed
Method: as §1

[5] = system: Pasteurella multocida 60A; assay: conventional broth-dilution microtiter test (MIC); conditions: avian isolate, unit assumed
Method: as §1

[6] = system: Mycoplasma gallisepticum; assay: conventional broth-dilution microtiter test (MIC); conditions: unit assumed
Method: as §1

[7] = system: Staphylococcus aureus; assay: conventional broth-dilution microtiter test (MIC); conditions: unit assumed
Method: as §1

[8] = system: Mycoplasma hyorhinis; assay: conventional broth-dilution microtiter test (MIC); conditions: unit assumed
Method: as §1

[9] = system: Streptococcus pyogenes C203; assay: standard agar-dilution assay (MIC); conditions: unit assumed
Method: as §1

[10] = system: Streptococcus Group 9960; assay: standard agar-dilution assay (MIC); conditions: unit assumed
Method: as §1

[11] = system: Haemophilus influenzae Holt; assay: standard agar-dilution assay (MIC); conditions: ampicillin-sensitive strain, unit assumed
Method: as §1

[12] = system: Staphylococcus aureus S13E; assay: standard agar-dilution assay (MIC); conditions: unit assumed
Method: as §1

[13] = system: Streptococcus Group D X66; assay: standard agar-dilution assay (MIC); conditions: unit assumed
Method: as §1

[14] = system: Haemophilus influenzae R252; assay: standard agar-dilution assay (MIC); conditions: Haemophilus influenzae R252, ampicillin-resistant strain, unit assumed
Method: as §1

[15] = system: Staphylococcus aureus X1.1; assay: standard agar-dilution assay (MIC); conditions: unit assumed
Method: as §1

[16] = system: Staphylococcus epidermidis EPI2; assay: standard agar-dilution assay (MIC); conditions: unit assumed
Method: as §1

[17] = system: Staphylococcus epidermidis EPI1; assay: standard agar-dilution assay (MIC); conditions: unit assumed
Method: as §1

[18] = system: Staphylococcus aureus V41; assay: standard agar-dilution assay (MIC); conditions: Staphylococcus aureus V41, penicillin-resistant strain, unit assumed
Method: as §1
^b Penicillinresistant strain

[19] = system: Mycoplasma synoviae; assay: conventional broth-dilution microtiter test (MIC); conditions: unit assumed
Method: as §1

Structure (SMILES)	MIC [1] [µg/mL]	MIC [2] [µg/mL]	MIC [3] [µg/mL]	MIC [4] [µg/mL]	MIC [5] [µg/mL]	MIC [6] [µg/mL]	MIC [7] [µg/mL]	MIC [8] [µg/mL]	MIC [9] [µg/mL]	MIC [10] [µg/mL]	MIC [11] [µg/mL]	MIC [12] [µg/mL]	MIC [13] [µg/mL]	MIC [14] [µg/mL]	MIC [15] [µg/mL]	MIC [16] [µg/mL]	MIC [17] [µg/mL]	MIC [18] [µg/mL]	MIC [19] [µg/mL]
CCC1OC(=O)CC(O)C(C)C(OC2OC(C)C(OC3CC(C)(O)C(O)C(C)O3)C(N(C)C)C2OC(C)=O)C(CC=O)CC(C)C(=O)C=CC(C)=CC1COC(=O)CCc1ccccc1 (stereo not shown) [Compound 13]	1 (≈ 1.09 µM)	0.015 (≈ 0.0164 µM)	≤ 0.048	1.56 (≈ 1.7 µM)	12.5 (≈ 13.6 µM)	≤ 0.048	0.78 (≈ 0.851 µM)	3.12 (≈ 3.41 µM)	0.25 (≈ 0.273 µM)	0.5 (≈ 0.546 µM)	2 (≈ 2.18 µM)	0.5 (≈ 0.546 µM)	0.5 (≈ 0.546 µM)	2 (≈ 2.18 µM)	0.25 (≈ 0.273 µM)	1 (≈ 1.09 µM)	1 (≈ 1.09 µM)	1 (≈ 1.09 µM)	
CCC1OC(=O)CC(O)C(C)C(OC2OC(C)C(OC3CC(C)(O)C(O)C(C)O3)C(N(C)C)C2OC(C)=O)C(CC=O)CC(C)C(=O)C=CC(C)=CC1COC(=O)Cc1ccc(Cl)cc1 (stereo not shown) [Compound 14, 2'-O-Acetyl-23-O-(p-chlorophenylacetyl)-DMT]	2 (≈ 2.14 µM)		0.78 (≈ 0.833 µM)	3.12 (≈ 3.33 µM)	6.25 (≈ 6.67 µM)	< 0.048	0.39 (≈ 0.416 µM)	6.25 (≈ 6.67 µM)	0.5 (≈ 0.534 µM)	1 (≈ 1.07 µM)	4 (≈ 4.27 µM)	1 (≈ 1.07 µM)	1 (≈ 1.07 µM)	4 (≈ 4.27 µM)	0.5 (≈ 0.534 µM)	2 (≈ 2.14 µM)	1 (≈ 1.07 µM)	2 (≈ 2.14 µM)	0.78 (≈ 0.833 µM)
CCC1OC(=O)CC(O)C(C)C(OC2OC(C)C(OC3CC(C)(O)C(O)C(C)O3)C(N(C)C)C2OC(C)=O)C(CC=O)CC(C)C(=O)C=CC(C)=CC1COC(=O)Cc1ccc([N+](=O)[O-])cc1 (stereo not shown) [Compound 15, 2'-O-Acetyl-23-O-(p-nitrophenylacetyl)-DMT]	0.5 (≈ 0.528 µM)		0.39 (≈ 0.412 µM)	3.12 (≈ 3.29 µM)	6.25 (≈ 6.6 µM)	0.39 (≈ 0.412 µM)	1.56 (≈ 1.65 µM)	0.78 (≈ 0.824 µM)	0.125 (≈ 0.132 µM)	0.25 (≈ 0.264 µM)	8 (≈ 8.45 µM)	0.25 (≈ 0.264 µM)	0.25 (≈ 0.264 µM)	4 (≈ 4.22 µM)	0.25 (≈ 0.264 µM)	0.5 (≈ 0.528 µM)	0.5 (≈ 0.528 µM)	0.5 (≈ 0.528 µM)	< 0.05
CCC1OC(=O)CC(O)C(C)C(OC2OC(C)C(OC3CC(C)(O)C(O)C(C)O3)C(N(C)C)C2OC(C)=O)C(CC=O)CC(C)C(=O)C=CC(C)=CC1COC(=O)C(Cl)(Cl)Cl (stereo not shown) [Compound 16]	4 (≈ 4.3 µM)	0.03 (≈ 0.0323 µM)	0.39 (≈ 0.42 µM)	6.25 (≈ 6.73 µM)	12.5 (≈ 13.5 µM)	0.39 (≈ 0.42 µM)	1.56 (≈ 1.68 µM)	3.12 (≈ 3.36 µM)	0.5 (≈ 0.538 µM)	1 (≈ 1.08 µM)	2 (≈ 2.15 µM)	1 (≈ 1.08 µM)	1 (≈ 1.08 µM)	2 (≈ 2.15 µM)	1 (≈ 1.08 µM)	4 (≈ 4.3 µM)	1 (≈ 1.08 µM)	2 (≈ 2.15 µM)	
CCC1OC(=O)CC(O)C(C)C(OC2OC(C)C(OC3CC(C)(O)C(O)C(C)O3)C(N(C)C)C2O)C(CC=O)CC(C)C(=O)C=CC(C)=CC1COC(=O)n1ccnc1 (stereo not shown) [Compound 22]	1 (≈ 1.2 µM)		1.56 (≈ 1.87 µM)	12.5 (≈ 15 µM)	25 (≈ 29.9 µM)	3.12 (≈ 3.73 µM)	6.25 (≈ 7.48 µM)	1.56 (≈ 1.87 µM)	0.25 (≈ 0.299 µM)	0.5 (≈ 0.598 µM)	16 (≈ 19.1 µM)	0.5 (≈ 0.598 µM)	1 (≈ 1.2 µM)	8 (≈ 9.57 µM)	0.5 (≈ 0.598 µM)	0.5 (≈ 0.598 µM)	0.5 (≈ 0.598 µM)	1 (≈ 1.2 µM)	1.56 (≈ 1.87 µM)
CCC1OC(=O)CC(O)C(C)C(OC2OC(C)C(OC3CC(C)(O)C(O)C(C)O3)C(N(C)C)C2O)C(CC=O)CC(C)C(=O)C=CC(C)=CC1COC(=O)NCCCO (stereo not shown) [Compound 26]	4 (≈ 4.74 µM)	0.125 (≈ 0.148 µM)	0.39 (≈ 0.463 µM)	6.25 (≈ 7.41 µM)	12.5 (≈ 14.8 µM)	0.78 (≈ 0.925 µM)	1.56 (≈ 1.85 µM)	6.25 (≈ 7.41 µM)	0.25 (≈ 0.297 µM)	2 (≈ 2.37 µM)	16 (≈ 19 µM)	4 (≈ 4.74 µM)	2 (≈ 2.37 µM)		1 (≈ 1.19 µM)	2 (≈ 2.37 µM)	1 (≈ 1.19 µM)	2 (≈ 2.37 µM)	0.39 (≈ 0.463 µM)
CCC1OC(=O)CC(O)C(C)C(OC2OC(C)C(OC3CC(C)(O)C(O)C(C)O3)C(N(C)C)C2OC(C)=O)C(CC=O)CC(C)C(=O)C=CC(C)=CC1COC(=O)NCc1ccccc1 (stereo not shown) [Compound 30]	0.5 (≈ 0.545 µM)		0.78 (≈ 0.851 µM)		12.5 (≈ 13.6 µM)	0.39 (≈ 0.425 µM)		1.56 (≈ 1.7 µM)	0.5 (≈ 0.545 µM)	0.5 (≈ 0.545 µM)	8 (≈ 8.72 µM)	0.5 (≈ 0.545 µM)	0.5 (≈ 0.545 µM)	4 (≈ 4.36 µM)	0.5 (≈ 0.545 µM)	0.5 (≈ 0.545 µM)	0.5 (≈ 0.545 µM)	1 (≈ 1.09 µM)	0.78 (≈ 0.851 µM)
